Measurements from patent US20230116978A1, “METHOD FOR LIBERATING INTRACELLULAR MATERIAL FROM PLANT CELLS” (Deerland Enzymes, Inc., priority 2021, published 2023).

Tests used:
[1] = Total antioxidant capacity, Folin-Ciocalteu assay (total phenolics assay); conditions: for Total antioxidant capacity: Folin-Ciocalteu, gallic acid reference
Procedure: Total antioxidant capacity was tested in the Folin-Ciocalteu assay (also known as the total phenolics assay). This assay makes use of the Folin-Ciocalteu reagent to measure antioxidants. The assay is performed by adding the Folin-Ciocalteu's phenol reagent to serial dilutions of extract, thoroughly mixing, and incubating for 5 minutes. Sodium carbonate is added, starting a chemical reaction producing a color. The reaction is allowed to continue for 30 minutes at 37° C. Optical absorbance is measured at 765 nm in a colorimetric plate reader. Gallic acid is used as a reference standard, and the data reported in Gallic Acid Equivalents per gram product.

[2] = system: human polymorphonuclear (PMN) cells; assay: ROS formation by inflammatory PMN cells (H2O2-triggered, DCF-DA, flow cytometry); assay type: cell-based; conditions: for effect on ROS formation by PMN cells (anti-/pro-inflammatory), in words: H2O2-triggered ROS
Source text: In measuring the effect on free radical formation by inflammatory cells, human polymorphonuclear (PMN) cells were used for testing effects of a product on ROS formation. PMN cells constitute approximately 70% of the white blood cells in humans. PMN cells produce high amounts of ROS upon certain inflammatory stimuli. Natural products may affect PMN cell ROS formation by three different mechanisms: 1. […] Triggering an anti-inflammatory cellular signal, leading to reduced ROS formation; 3. Triggering an immune reaction, leading to enhanced ROS formation. The effects of test products were measured by exposing freshly purified human PMN cells to the test products. During the incubation with a test product, any antioxidant compounds able to cross the cell membrane can enter the interior of the PMN cells, and compounds that trigger a signaling event can do so. Then the cells are washed, loaded with the DCF-DA dye, which turns fluorescent upon exposure to ROS. Formation of ROS is triggered by addition of H2O2. The fluorescence intensity of the PMN cells is evaluated by flow cytometry. The low fluorescence intensity of untreated control cells serves as a baseline and PMN cells treated with H2O2 alone serve as a positive control. […] The testing was performed on cells from a healthy donor. […]

[3] = system: human RBC; assay: Cellular antioxidant protection, CAP-e bioassay; assay type: cell-based; conditions: for Cellular antioxidant Protection (CAP-e value): human RBC, AAPH oxidation
Procedure: Cell-based antioxidant protection was measured via a CAP-e bioassay. […] The CAP-e bioassay was specifically designed to work with natural products and ingredients. The red blood cell (RBC) was used as the model cell type as it is an inert cell type, in contrast to other cell types such as PMN cells. The red blood cell-based assay was developed particularly to be able to assess antioxidants from complex natural products in a cell-based system, as well as help interpret subsequent data from more complex cellular models. Freshly purified human RBC are washed repeatedly in physiological saline, and then exposed to the test products. During the incubation with a test product, any antioxidant compounds able to cross the cell membrane can enter the interior of the RBC. Then the RBC are washed to remove compounds that were not absorbed by the cells, and loaded with the DCF-DA dye, which turns fluorescent upon exposure to reactive oxygen species (ROS). Oxidation is triggered by addition of the peroxyl free radical generator AAPH. The fluorescence intensity is evaluated. The low fluorescence intensity of untreated control cells serves as a baseline, and RBC treated with AAPH alone serve as a positive control for maximum oxidative damage. […] Based on the low fluorescence of the untreated control wells, and the high fluorescence of the cell cultures exposed to oxidative damage, the fluorescence intensity in cell cultures treated with test products prior to exposure to oxidative stress is used to calculate the percent inhibition of cellular oxidative stress.

Question: Which results are given for `CC1=C(/C=C/C(C)=C/C=C/C(C)=C/C=C/C=C(C)/C=C/C=C(C)/C=C/C2=C(C)C(=O)[C@@H](O)CC2(C)C)C(C)(C)C[C@H](O)C1=O` [Astaxanthin]?
Answer: Total antioxidant capacity [1]: 2 mg GAE per gram; effect on ROS formation by PMN cells (anti-/pro-inflammatory), in words [2]: less anti-inflammatory capacity than the SOLARPLAST® post-aqueous fraction

Question: Which “cellular antioxidant protection, comparison in words” value [3] does the source give for `N[C@@H](CCC(=O)N[C@@H](CS)C(=O)NCC(=O)O)C(=O)O` [L-glutathione, reduced] here?
Answer: had more antioxidant capacity than SOLARPLAST®

Question: And the Cell lysing ([3]; highest concentration tested)?
Answer: Cell lysing occurred

Question: What about the “Cellular antioxidant Protection (CAP-e value)” value [3] of the same molecule?
Answer: 619 μM GA/gram

Question: What about the “total antioxidant capacity, comparison in words” value [1] of the same molecule?
Answer: had more antioxidant capacity than SOLARPLAST®

Question: What about the Total antioxidant capacity [1] of the same molecule?
Answer: 153 mg GAE per gram

Question: What about the “effect on ROS formation by PMN cells (anti-/pro-inflammatory), in words” value [2] of the same molecule?
Answer: less anti-inflammatory capacity than the SOLARPLAST® post-aqueous fraction

Question: What about the “effect on ROS formation by PMN cells at the highest/higher doses” value ([2]; highest or higher doses) of the same molecule?
Answer: robust increase in ROS formation

Question: With `Oc1ccc(C=Cc2cc(O)cc(O)c2)cc1` [Resveratrol] as the molecule, how does the “cellular antioxidant protection, comparison in words” value [3] read?
Answer: had more antioxidant capacity than SOLARPLAST®

Question: And the “Cellular antioxidant Protection (CAP-e value)” value [3]?
Answer: 235 μM GA/gram

Question: And the “effect on ROS formation by PMN cells (anti-/pro-inflammatory), in words” value [2]?
Answer: considerably more anti-inflammatory capabilities than any of the fractions of SOLARPLAST®
